Measurements reported in ChEMBL document CHEMBL5465560, “Selectivity Literature for EUbOPEN Chemogenomic Library” (2024).
Each block holds one compound with its values, some of them ahead of it.

How the values were obtained:
[1] = target: Fibroblast growth factor receptor 2 (Homo sapiens) (UniProt P21802); experiment: Selectivity interaction (KinaseProfiler screening (Millipore)) EUB0000601a FGFR2; conditions: at 3 µM
KCNQ1 = KCNQ1 (Homo sapiens, UniProt P51787); experiment: Selectivity interaction (Panel of kinases, GPCRs, ion channels and transporters (enzymatic assay)) EUB0000266bCl KCNQ1
[2] = target: T1, Homeodomain-interacting protein kinase 4 (Homo sapiens) (UniProt Q8NE63); experiment: Selectivity interaction (Ambit KINOMEscan and KiNATiv profiling in Jurkat cells) EUB0000090b HIPK4; format: cell-based; conditions: at 1 µM
T1 sequence (whole entry): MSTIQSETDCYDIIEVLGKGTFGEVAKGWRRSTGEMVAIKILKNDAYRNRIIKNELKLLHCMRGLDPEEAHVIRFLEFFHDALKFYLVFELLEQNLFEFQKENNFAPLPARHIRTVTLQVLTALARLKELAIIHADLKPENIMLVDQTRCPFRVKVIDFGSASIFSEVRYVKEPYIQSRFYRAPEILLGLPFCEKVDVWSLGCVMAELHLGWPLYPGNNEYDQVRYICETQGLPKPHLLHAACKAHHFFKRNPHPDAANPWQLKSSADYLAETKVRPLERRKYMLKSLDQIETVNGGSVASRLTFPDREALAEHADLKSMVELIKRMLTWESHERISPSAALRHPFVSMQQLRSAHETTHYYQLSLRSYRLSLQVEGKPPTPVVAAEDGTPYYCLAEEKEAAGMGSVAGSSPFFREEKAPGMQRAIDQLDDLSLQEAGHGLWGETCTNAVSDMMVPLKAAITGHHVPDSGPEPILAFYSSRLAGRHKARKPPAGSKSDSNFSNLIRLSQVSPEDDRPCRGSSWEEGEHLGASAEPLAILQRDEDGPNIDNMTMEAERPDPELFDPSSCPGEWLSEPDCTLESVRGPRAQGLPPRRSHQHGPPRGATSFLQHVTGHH

[3] = target: T2, Inhibitor of nuclear factor kappa-B kinase subunit beta (Homo sapiens) (UniProt O14920); experiment: Selectivity interaction (ActivX KiNativ screen (kinase selectivity in THP-1 cell lysates)) EUB0000639a IKBKB; format: subcellular; conditions: lysate, at 0.04 µM
T2 sequence (whole entry): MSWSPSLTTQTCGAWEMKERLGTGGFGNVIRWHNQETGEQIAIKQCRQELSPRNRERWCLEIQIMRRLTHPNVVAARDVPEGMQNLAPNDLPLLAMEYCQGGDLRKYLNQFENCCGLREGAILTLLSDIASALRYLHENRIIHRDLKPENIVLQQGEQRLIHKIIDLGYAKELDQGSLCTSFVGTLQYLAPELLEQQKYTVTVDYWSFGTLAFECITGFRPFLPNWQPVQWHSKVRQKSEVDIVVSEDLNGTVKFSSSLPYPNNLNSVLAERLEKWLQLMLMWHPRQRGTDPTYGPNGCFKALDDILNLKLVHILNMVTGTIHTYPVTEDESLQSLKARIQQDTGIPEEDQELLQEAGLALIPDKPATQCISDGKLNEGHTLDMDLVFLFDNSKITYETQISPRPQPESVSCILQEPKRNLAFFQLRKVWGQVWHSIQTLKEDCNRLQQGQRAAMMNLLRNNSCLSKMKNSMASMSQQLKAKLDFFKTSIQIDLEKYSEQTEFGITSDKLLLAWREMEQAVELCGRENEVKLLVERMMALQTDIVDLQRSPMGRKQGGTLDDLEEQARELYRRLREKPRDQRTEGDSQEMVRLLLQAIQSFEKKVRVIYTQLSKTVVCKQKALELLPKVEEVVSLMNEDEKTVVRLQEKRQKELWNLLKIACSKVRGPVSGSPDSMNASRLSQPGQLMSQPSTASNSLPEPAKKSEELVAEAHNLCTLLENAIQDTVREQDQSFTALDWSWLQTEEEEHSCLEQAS

[4] = target: Vascular endothelial growth factor receptor 2 (Homo sapiens, UniProt P35968); experiment: Selectivity interaction (Kinase panel (33PanQinase(R) Activity Assay)) EUB0000877a KDR
[5] = Selectivity interaction (Rat whole blood B cell activation assay) EUB0000877a PIK3CD; format: tissue-based
[6] = target: cAMP-dependent protein kinase catalytic subunit alpha (Homo sapiens, UniProt P17612); experiment: Selectivity interaction (Kinase panel (literature)) EUB0001199aCl PRKACA; conditions: at 1 µM
Adenosine receptor A2a = Adenosine receptor A2a (Homo sapiens, UniProt P29274); experiment: Selectivity interaction (Eurofins CEREP Diversity Profile (receptors and ion channels)) EUB0000279b ADORA2A; conditions: at 10 µM
[7] = target: Protein polybromo-1 (Homo sapiens) (UniProt Q86U86); experiment: Selectivity interaction (Human bromodomain panel (DSF assay)) EUB0000233b PBRM1
Chain of Protein polybromo-1 (Homo sapiens) (Q86U86 whole entry): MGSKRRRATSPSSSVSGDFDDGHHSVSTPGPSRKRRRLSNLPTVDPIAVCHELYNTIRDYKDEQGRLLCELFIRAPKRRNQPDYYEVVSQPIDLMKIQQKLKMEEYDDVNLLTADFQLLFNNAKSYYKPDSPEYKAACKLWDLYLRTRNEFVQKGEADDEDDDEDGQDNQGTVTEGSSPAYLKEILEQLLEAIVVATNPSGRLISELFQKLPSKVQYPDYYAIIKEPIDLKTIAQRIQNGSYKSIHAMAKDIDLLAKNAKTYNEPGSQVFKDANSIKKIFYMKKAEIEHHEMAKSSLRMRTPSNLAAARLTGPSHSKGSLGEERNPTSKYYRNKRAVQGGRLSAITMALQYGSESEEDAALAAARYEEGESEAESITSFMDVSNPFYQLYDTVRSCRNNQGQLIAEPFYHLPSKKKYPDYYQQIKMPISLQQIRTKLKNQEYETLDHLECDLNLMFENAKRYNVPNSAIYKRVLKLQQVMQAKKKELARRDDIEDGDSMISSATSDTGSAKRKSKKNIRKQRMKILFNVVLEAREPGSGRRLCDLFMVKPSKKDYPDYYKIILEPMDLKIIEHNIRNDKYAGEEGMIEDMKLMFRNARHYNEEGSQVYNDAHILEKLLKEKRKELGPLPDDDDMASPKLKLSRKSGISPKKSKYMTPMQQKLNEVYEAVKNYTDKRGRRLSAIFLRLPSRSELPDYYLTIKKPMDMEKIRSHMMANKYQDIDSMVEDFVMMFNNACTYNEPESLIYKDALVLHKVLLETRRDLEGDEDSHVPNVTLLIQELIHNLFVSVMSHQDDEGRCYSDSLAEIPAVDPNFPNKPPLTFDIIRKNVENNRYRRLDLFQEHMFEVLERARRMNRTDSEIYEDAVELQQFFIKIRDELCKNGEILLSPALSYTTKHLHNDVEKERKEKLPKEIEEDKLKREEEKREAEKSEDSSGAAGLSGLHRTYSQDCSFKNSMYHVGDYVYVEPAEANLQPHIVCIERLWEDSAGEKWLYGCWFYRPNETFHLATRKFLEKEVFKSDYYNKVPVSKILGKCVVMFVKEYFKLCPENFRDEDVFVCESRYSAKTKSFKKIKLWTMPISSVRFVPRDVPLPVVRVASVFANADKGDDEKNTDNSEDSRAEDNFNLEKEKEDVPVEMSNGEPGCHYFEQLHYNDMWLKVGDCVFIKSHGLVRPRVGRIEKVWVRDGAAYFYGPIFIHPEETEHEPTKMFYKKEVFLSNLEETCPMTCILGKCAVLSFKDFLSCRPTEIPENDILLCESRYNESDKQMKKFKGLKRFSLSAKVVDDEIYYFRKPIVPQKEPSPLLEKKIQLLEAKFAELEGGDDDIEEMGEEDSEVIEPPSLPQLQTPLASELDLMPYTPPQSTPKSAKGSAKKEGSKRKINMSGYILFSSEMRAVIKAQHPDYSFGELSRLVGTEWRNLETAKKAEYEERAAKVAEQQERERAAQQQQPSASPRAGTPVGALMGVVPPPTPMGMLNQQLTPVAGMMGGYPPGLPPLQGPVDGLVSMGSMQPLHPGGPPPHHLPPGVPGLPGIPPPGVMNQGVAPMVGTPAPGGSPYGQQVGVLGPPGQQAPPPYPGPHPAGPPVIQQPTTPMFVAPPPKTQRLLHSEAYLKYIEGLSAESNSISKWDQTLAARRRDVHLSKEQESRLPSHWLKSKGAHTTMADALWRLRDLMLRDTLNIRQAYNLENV

[8] = target: Dual specificity protein kinase CLK4 (Homo sapiens, UniProt Q9HAZ1); experiment: Selectivity interaction (KinomeScan (DiscoverX)) EUB0000045b CLK4
Chain of Dual specificity protein kinase CLK4 (Q9HAZ1 whole entry, looked up): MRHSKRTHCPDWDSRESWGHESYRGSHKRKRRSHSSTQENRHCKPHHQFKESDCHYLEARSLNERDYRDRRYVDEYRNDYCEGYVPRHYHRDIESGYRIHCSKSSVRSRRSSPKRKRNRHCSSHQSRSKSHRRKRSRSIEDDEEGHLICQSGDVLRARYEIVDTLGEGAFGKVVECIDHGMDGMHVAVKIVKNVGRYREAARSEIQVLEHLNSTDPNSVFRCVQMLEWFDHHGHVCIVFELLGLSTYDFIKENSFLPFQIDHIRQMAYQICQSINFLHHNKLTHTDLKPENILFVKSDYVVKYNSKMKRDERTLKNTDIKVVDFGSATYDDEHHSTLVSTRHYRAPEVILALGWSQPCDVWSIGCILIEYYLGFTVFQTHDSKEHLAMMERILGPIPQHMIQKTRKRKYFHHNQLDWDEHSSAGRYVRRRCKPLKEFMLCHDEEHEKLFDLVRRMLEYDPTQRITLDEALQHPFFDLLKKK

[9] = tested on: Tyrosine-protein kinase ABL1 (Homo sapiens), P00519 [Q252H]; experiment: Selectivity interaction (KinomeScan (DiscoverX)) EUB0000618a ABL1; conditions: at 10 µM
[10] = target: T3, Calcium/calmodulin-dependent protein kinase type IV (Homo sapiens) (UniProt Q16566); experiment: Selectivity interaction (KinomeScan (DiscoverX)) EUB0000618a CAMK4; conditions: at 10 µM
T3 sequence (whole entry): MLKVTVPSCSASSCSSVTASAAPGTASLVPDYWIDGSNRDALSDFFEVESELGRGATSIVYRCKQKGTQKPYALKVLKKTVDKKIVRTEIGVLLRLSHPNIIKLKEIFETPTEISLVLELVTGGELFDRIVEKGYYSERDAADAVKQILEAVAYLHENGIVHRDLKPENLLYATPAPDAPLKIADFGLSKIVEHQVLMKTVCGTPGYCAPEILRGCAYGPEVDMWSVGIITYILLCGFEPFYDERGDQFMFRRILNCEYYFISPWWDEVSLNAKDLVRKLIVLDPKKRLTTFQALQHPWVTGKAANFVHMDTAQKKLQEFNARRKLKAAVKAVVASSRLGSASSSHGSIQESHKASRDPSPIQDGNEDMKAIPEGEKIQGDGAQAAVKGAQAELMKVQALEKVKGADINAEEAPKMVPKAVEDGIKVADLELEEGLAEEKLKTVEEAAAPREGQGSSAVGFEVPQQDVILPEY

[11] = target: DNA (cytosine-5)-methyltransferase 1 (Homo sapiens) (UniProt P26358); experiment: Selectivity interaction (Methyltransferase screen (Scintillation proximity assays)) EUB0000255b DNMT1
Chain of DNA (cytosine-5)-methyltransferase 1 (Homo sapiens) (P26358 whole entry): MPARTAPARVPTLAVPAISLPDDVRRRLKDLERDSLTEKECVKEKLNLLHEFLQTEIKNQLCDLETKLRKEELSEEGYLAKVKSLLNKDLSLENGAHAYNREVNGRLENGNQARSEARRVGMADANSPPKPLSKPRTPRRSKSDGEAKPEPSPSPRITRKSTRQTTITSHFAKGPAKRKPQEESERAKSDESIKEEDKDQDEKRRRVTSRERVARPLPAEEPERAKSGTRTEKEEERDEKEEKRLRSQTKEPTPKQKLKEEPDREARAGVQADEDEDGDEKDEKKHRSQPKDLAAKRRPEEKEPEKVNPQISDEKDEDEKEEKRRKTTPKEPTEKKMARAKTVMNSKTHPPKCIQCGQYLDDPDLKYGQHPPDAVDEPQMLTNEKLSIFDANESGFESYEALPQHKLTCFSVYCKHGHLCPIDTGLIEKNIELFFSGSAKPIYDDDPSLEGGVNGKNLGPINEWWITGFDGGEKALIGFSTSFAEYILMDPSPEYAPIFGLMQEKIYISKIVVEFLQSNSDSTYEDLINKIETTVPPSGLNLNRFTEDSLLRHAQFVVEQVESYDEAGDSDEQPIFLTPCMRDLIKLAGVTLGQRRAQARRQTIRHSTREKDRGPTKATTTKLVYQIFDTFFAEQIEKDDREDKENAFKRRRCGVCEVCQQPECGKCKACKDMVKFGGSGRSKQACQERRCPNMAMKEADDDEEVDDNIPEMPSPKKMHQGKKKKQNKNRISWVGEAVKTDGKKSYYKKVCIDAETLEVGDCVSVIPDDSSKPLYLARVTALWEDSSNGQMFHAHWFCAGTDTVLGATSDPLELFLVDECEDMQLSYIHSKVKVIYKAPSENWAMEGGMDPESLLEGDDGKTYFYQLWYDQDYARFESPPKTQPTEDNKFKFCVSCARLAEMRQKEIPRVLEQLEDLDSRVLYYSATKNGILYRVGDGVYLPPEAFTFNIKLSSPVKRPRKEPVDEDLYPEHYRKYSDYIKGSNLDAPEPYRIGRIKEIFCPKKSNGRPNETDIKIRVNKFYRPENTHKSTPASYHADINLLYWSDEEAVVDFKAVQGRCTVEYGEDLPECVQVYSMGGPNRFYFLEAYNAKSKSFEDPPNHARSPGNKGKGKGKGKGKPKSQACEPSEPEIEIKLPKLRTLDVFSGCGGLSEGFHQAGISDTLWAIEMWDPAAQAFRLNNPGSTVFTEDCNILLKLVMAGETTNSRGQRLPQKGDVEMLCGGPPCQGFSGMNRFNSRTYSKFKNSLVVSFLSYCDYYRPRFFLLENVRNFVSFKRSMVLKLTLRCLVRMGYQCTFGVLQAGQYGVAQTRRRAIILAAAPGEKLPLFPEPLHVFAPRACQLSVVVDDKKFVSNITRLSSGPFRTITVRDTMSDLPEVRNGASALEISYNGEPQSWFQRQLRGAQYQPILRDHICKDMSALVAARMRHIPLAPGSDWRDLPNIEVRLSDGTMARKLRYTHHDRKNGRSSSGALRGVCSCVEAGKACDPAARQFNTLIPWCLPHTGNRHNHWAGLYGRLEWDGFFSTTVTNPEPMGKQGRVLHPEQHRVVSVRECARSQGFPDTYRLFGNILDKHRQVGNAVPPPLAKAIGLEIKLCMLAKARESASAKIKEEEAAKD

[12] = target: Vascular endothelial growth factor receptor 1 (Homo sapiens) (UniProt P17948); experiment: Selectivity interaction (Kinase panel (DSF assay)) EUB0001558a FLT1
Chain of Vascular endothelial growth factor receptor 1 (Homo sapiens) (P17948 whole entry): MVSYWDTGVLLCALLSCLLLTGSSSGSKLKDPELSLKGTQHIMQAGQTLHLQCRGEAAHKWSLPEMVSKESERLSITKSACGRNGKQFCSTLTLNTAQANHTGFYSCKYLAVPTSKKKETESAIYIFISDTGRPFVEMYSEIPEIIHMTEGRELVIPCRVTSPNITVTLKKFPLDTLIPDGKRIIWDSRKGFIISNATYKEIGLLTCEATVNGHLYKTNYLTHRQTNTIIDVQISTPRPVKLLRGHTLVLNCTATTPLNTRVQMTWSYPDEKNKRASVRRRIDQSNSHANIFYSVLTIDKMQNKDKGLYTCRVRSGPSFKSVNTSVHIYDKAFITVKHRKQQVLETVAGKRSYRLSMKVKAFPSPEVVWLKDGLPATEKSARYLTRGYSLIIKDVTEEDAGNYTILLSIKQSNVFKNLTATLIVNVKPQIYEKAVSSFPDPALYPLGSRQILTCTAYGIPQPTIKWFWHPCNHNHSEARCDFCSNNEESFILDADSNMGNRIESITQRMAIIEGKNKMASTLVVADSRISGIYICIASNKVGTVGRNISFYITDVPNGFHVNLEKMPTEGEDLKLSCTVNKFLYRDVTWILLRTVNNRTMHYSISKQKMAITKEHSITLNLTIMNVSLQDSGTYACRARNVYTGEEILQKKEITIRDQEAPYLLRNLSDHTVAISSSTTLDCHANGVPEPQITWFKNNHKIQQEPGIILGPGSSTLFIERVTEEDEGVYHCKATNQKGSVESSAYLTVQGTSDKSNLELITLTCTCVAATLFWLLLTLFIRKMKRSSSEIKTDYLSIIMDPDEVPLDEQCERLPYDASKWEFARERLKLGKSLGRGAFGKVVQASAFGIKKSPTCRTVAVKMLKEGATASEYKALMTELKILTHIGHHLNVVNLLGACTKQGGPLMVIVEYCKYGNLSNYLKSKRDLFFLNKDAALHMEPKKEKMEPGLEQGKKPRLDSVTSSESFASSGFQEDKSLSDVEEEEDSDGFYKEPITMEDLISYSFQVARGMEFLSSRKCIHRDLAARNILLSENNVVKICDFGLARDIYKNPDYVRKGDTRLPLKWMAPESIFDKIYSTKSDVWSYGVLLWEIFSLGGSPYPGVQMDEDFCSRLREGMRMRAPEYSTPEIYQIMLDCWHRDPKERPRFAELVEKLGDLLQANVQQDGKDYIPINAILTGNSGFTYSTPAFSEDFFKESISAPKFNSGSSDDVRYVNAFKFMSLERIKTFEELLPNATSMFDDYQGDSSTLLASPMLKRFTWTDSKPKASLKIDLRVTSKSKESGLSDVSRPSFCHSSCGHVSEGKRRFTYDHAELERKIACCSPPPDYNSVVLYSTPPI

SMILES: CN(C)C/C=C/C(=O)Nc1ccc(C(=O)N2CCCC(Nc3ncc(Cl)c(-c4c[nH]c5ccccc45)n3)C2)cc1 (stereo unspecified)
% of control [2]: 47%

SMILES: C=CC(=O)Nc1cc(-n2c(=O)ccc3cnc4ccc(-c5ccc(NS(C)(=O)=O)cc5)cc4c32)ccc1C
% of control ([8]; at 1 µM): 99%
% of control ([8]; at 10 µM): 85%

SMILES: O[C@H]1CC[C@H](Nc2ncc3nc(Nc4c(F)cc(F)cc4F)n([C@H]4CCOC4)c3n2)CC1
% of control [9]: 36%
% of control [10]: 87%

SMILES: COCCN1CCC(c2cc(CN(C)C(=O)c3cccc(Oc4ccccc4)c3)ccn2)CC1
% activity ([11]; at 1 µM): > 95%
% activity ([11]; at 10 µM): 79%

SMILES: CC(C)(O)[C@H](F)CN1Cc2cc(NC(=O)c3cnn4cccnc34)c(N3CCOCC3)cc2C1=O
dTM [12]: 3.3 K

Next, values leading:

% of inhibition [1]: 50%
SMILES: CCc1cc(Nc2nccc(-c3c(-c4ccc(OC)c(C(=O)Nc5c(F)cccc5F)c4)nc4ccccn34)n2)c(OC)cc1N1CCC(N2CCN(S(C)(=O)=O)CC2)CC1

XC50 (KCNQ1): > 25.1 µM
SMILES: CCn1c(-c2nc3cc(C(=O)N4CCCC(N)C4)ccc3n2C)cc2ccccc21 (stereo unspecified)

% of inhibition [3]: -3.9%
SMILES: CC[C@@H]1[C@H](F)C(=O)N[C@@H]1COc1nccc2cc(C(N)=O)c(OC)cc12 [ZIMLOVISERTIB]

IC50 [4]: > 10 µM
IC50 [5]: 99 nM
SMILES: CCC(=O)N1CC[C@H](Nc2ncnc3c2CN(c2cnc(OC)c(C(F)(F)F)c2)CC3)C1 [LENIOLISIB]

% of inhibition [6]: 2%
SMILES: CN1Cc2nccc(-c3cn(C)nc3-c3ccc(F)cc3)c2C1=O

% of control (Adenosine receptor A2a): 80%
SMILES: CC(=O)c1cc(-c2ccccc2OCC2CC2)c2ncccn12

dTM [7]: < 2 K
SMILES: CN(C)CCCOc1ccc(-c2cc(NCCCn3cccn3)nc(S(C)(=O)=O)n2)cc1
